The subject of the assay is BDF1 mice, P388 leukemia ip, median survival T/C. Briefly: NCI In Vivo Anticancer Drug Screen. Data for tumor model P388 Leukemia (intraperitoneal) in B6D2F1 (BDF1) mice. As to conditions: endpoint: median survival time, higher = longer survival. The essentials: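 Transplantable tumour in mice; compound vs vehicle dosing; survival scored; ratio of treated to control reported.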

The mark [1] stands for this setting: dose: 100.0 mg/kg/injection, schedule: Q01DX009 (ip), vehicle: saline with Tween-80.
Setting [2] is: dose: 50.0 mg/kg/injection, schedule: Q01DX009 (ip), vehicle: saline with Tween-80.
Where [3] appears, read: dose: 200.0 mg/kg/injection, schedule: Q01DX009 (ip), vehicle: saline with Tween-80.
Setting [4] is: dose: 100.0 mg/kg/injection, schedule: Q04DX003 (ip), vehicle: saline.
The mark [5] stands for this setting: dose: 200.0 mg/kg/injection, schedule: Q04DX003 (ip), vehicle: saline.
[6] abbreviates: dose: 200.0 mg/kg/injection, schedule: Q01DX009 (ip), vehicle: saline.

Drawing on PubChem BioAssay AID328 (DTP/NCI, 2004), this text covers T/C for 13 compounds.

SMILES strings stand for the structures. Values joined by “and” are separate entries in the source; they are usually repeats but may differ in a detail not shown here. Identical values can stand only once. Inconclusive results and toxic doses are left out.

On to `C=COCC(C)C` (tested in a mixture with another compound), for which the T/C was 105 % of control (dose: 0.19 mg/kg/injection, schedule: Q01DX009 (ip), vehicle: Klucel (hydroxypropylcellulose) (HPC)); 120 % of control (dose: 0.39 mg/kg/injection, schedule: Q01DX009 (ip), vehicle: Klucel (hydroxypropylcellulose) (HPC)); 120 % of control (dose: 0.78 mg/kg/injection, schedule: Q01DX009 (ip), vehicle: Klucel (hydroxypropylcellulose) (HPC)); 104 % of control (dose: 0.78 mg/kg/injection, schedule: Q04DX003 (ip), vehicle: saline); 100 % of control (dose: 1.56 mg/kg/injection, schedule: Q01DX009 (ip), vehicle: Klucel (hydroxypropylcellulose) (HPC)); 109 % of control (dose: 1.56 mg/kg/injection, schedule: Q04DX003 (ip), vehicle: Klucel (hydroxypropylcellulose) (HPC)). Further, the T/C is, setting by setting: (dose: 1.56 mg/kg/injection, schedule: Q04DX003 (ip), vehicle: saline) 95 % of control; (dose: 3.12 mg/kg/injection, schedule: Q04DX003 (ip), vehicle: Klucel (hydroxypropylcellulose) (HPC)) 104 % of control; (dose: 3.12 mg/kg/injection, schedule: Q04DX003 (ip), vehicle: saline) 104 % of control; (dose: 4.6 mg/kg/injection, schedule: Q04DX003 (ip), vehicle: saline) 104 % of control; (dose: 6.25 mg/kg/injection, schedule: Q04DX003 (ip), vehicle: Klucel (hydroxypropylcellulose) (HPC)) 113 % of control; (dose: 7.0 mg/kg/injection, schedule: Q04DX003 (ip), vehicle: saline) 109 % of control. Further, the T/C is 91 % of control (dose: 7.5 mg/kg/injection, schedule: Q01DX001 (ip), vehicle: alcohol); 110 % of control (dose: 8.75 mg/kg/injection, schedule: Q01DX009 (ip), vehicle: saline with Tween-80); 104 % of control (dose: 10.0 mg/kg/injection, schedule: Q04DX003 (ip), vehicle: saline); 104 % of control (dose: 15.0 mg/kg/injection, schedule: Q01DX001 (ip), vehicle: alcohol); 95 % of control (dose: 17.5 mg/kg/injection, schedule: Q01DX009 (ip), vehicle: saline with Tween-80); 104 % of control (dose: 30.0 mg/kg/injection, schedule: Q01DX001 (ip), vehicle: alcohol).

In the case of `CN(C)N=Nc1ccc(CCCC(=O)NN)cc1`, the T/C is 109 % of control (dose: 1.56 mg/kg/injection, schedule: Q01DX009 (ip), vehicle: saline with Tween-80); 120 % of control (dose: 2.0 mg/kg/injection, schedule: Q01DX009 (ip), vehicle: saline with Tween-80); 92 % of control (dose: 25.0 mg/kg/injection, schedule: Q01DX009 (ip), vehicle: saline with Tween-80); 100 % of control (dose: 50.0 mg/kg/injection, schedule: Q04DX003 (ip), vehicle: saline sonified); 100 % of control under setting [1]; 115 % of control (dose: 100.0 mg/kg/injection, schedule: Q04DX003 (ip), vehicle: saline sonified). Also, the T/C (dose: 200.0 mg/kg/injection, schedule: Q04DX003 (ip), vehicle: saline sonified) was 110 % of control.

Turning to `C/C=C1\CN(C(=O)C(NC(=O)C(N)C(O)C(O)COC(N)=O)C2OC(n3cc(C(=O)O)c(=O)[nH]c3=O)C(O)C2O)C1C(=O)O` (centres undefined) (tested in a mixture with another compound), the T/C (dose: 100.0 mg/kg/injection, schedule: Q01DX008 (ip), vehicle: saline) was 90 % of control and the T/C (dose: 200.0 mg/kg/injection, schedule: Q01DX008 (ip), vehicle: saline) is 100 % of control.

As to `NC(=S)N/N=C\c1nccc2ccc(N)cc12`, under setting [2], the T/C is 157 % of control.

In the case of `COC1CC=CC2=C1CCC1C2CC2C(=O)C1(C)CCC2O` (centres undefined), the T/C (dose: 100.0 mg/kg/injection, schedule: Q01DX001 (ip), vehicle: other) was 105 % of control; the T/C (dose: 200.0 mg/kg/injection, schedule: Q01DX001 (ip), vehicle: other) was 100 % of control; the T/C (dose: 400.0 mg/kg/injection, schedule: Q01DX001 (ip), vehicle: other) is 100 % of control.

With `COc1ccc(C(=O)CC(C#N)c2ccc(OC)cc2)cc1` (centres undefined), the T/C reads like this: under setting [2], 106 % of control; under setting [1], 106 % of control; under setting [3], 101 % of control.

For `Cc1ccc(C(=O)C2CC2)c(C)c1`, the T/C runs as follows: under setting [2], 92 % of control; under setting [1], 103 % of control; (dose: 100.0 mg/kg/injection, schedule: Q04DX003 (ip), vehicle: saline with Tween-80) 112 % of control; under setting [3], 100 % of control; (dose: 200.0 mg/kg/injection, schedule: Q04DX003 (ip), vehicle: saline with Tween-80) 120 % of control; (dose: 400.0 mg/kg/injection, schedule: Q04DX003 (ip), vehicle: saline with Tween-80) 108 % of control.

For `O=C(C=C(C(F)(F)F)C(F)(F)F)c1cc(Cl)ccc1Cl`, the T/C was 95 % of control (dose: 3.12 mg/kg/injection, schedule: Q01DX009 (ip), vehicle: saline with Tween-80); 95 % of control (dose: 6.25 mg/kg/injection, schedule: Q01DX009 (ip), vehicle: saline with Tween-80); 112 % of control (dose: 7.0 mg/kg/injection, schedule: Q04DX003 (ip), vehicle: saline with Tween-80); 120 % of control (dose: 11.0 mg/kg/injection, schedule: Q04DX003 (ip), vehicle: saline with Tween-80); 103 % of control and 108 % of control (dose: 12.5 mg/kg/injection, schedule: Q01DX009 (ip), vehicle: saline with Tween-80); 115 % of control (dose: 12.5 mg/kg/injection, schedule: Q04DX003 (ip), vehicle: saline with Tween-80). Also, the T/C (dose: 16.5 mg/kg/injection, schedule: Q04DX003 (ip), vehicle: saline with Tween-80) is 120 % of control; the T/C (dose: 25.0 mg/kg/injection, schedule: Q04DX003 (ip), vehicle: saline with Tween-80) is 113 % of control; the T/C (dose: 37.5 mg/kg/injection, schedule: Q04DX003 (ip), vehicle: saline with Tween-80) was 121 % of control.

As for `Cc1cc(C)c(S(=O)(=O)OCCCl)c(C)c1`, the T/C runs as follows: (dose: 50.0 mg/kg/injection, schedule: Q01DX005 (ip), vehicle: Klucel (hydroxypropylcellulose) (HPC)) 106 % of control; (dose: 100.0 mg/kg/injection, schedule: Q01DX005 (ip), vehicle: Klucel (hydroxypropylcellulose) (HPC)) 95 % of control.

Regarding `COC(=O)c1ccc(SCCCN2CCOCC2)cc1`, the T/C reads like this: under setting [4], 90 % of control; under setting [5], 113 % of control.

As for `NC(N)=NO`, the T/C reads like this: (dose: 9.37 mg/kg/injection, schedule: Q01DX009 (ip), vehicle: saline) 91 % of control; (dose: 9.38 mg/kg/injection, schedule: Q01DX009 (ip), vehicle: saline) 90 % of control; (dose: 18.75 mg/kg/injection, schedule: Q01DX009 (ip), vehicle: saline) 100 % of control and 103 % of control; (dose: 37.5 mg/kg/injection, schedule: Q01DX009 (ip), vehicle: saline) 112 % of control and 115 % of control; under setting [6], 166 % of control and 168 % of control; (dose: 300.0 mg/kg/injection, schedule: Q01DX009 (ip), vehicle: saline) 158 % of control and 163 % of control. For the same compound, the T/C (dose: 400.0 mg/kg/injection, schedule: Q01DX009 (ip), vehicle: saline) is 195 % of control and 198 % of control.

With `COc1ccc(C(O)CNC(=O)c2ccccc2)cc1` (centres undefined), the T/C reads like this: (dose: 66.0 mg/kg/injection, schedule: Q04DX003 (ip), vehicle: Klucel (hydroxypropylcellulose) (HPC)) 109 % of control and 110 % of control; (dose: 100.0 mg/kg/injection, schedule: Q04DX003 (ip), vehicle: Klucel (hydroxypropylcellulose) (HPC)) 255 % of control and 104 % of control and 115 % of control; (dose: 150.0 mg/kg/injection, schedule: Q04DX003 (ip), vehicle: Klucel (hydroxypropylcellulose) (HPC)) 109 % of control and 115 % of control.

In the case of `Cc1c(C(=O)O)cc2n(c1=O)Cc1cc3ccccc3nc1-2`, the T/C (dose: 50.0 mg/kg/injection, schedule: Q01DX009 (ip), vehicle: saline) is 95 % of control; the T/C (dose: 50.0 mg/kg/injection, schedule: Q04DX003 (ip), vehicle: saline) was 92 % of control; the T/C (dose: 100.0 mg/kg/injection, schedule: Q01DX009 (ip), vehicle: saline) was 113 % of control; the T/C under setting [4] is 100 % of control; the T/C under setting [6] is 100 % of control; the T/C under setting [5] was 96 % of control.
